This passage reports IC50 results from patent publication US12162888B2, “Carboxamides as ubiquitin-specific protease inhibitors” (Valo Early Discovery, Inc., priority 2018, dated 2024).

For the experiment, the target named is T1, USP25 (USP25-His6, Boston Biochem E-546) (Homo sapiens, UniProt Q9UHP3).
T1 construct: His6 (C); purchased Boston Biochem E-546
T1 sequence (Q9UHP3 1-1055): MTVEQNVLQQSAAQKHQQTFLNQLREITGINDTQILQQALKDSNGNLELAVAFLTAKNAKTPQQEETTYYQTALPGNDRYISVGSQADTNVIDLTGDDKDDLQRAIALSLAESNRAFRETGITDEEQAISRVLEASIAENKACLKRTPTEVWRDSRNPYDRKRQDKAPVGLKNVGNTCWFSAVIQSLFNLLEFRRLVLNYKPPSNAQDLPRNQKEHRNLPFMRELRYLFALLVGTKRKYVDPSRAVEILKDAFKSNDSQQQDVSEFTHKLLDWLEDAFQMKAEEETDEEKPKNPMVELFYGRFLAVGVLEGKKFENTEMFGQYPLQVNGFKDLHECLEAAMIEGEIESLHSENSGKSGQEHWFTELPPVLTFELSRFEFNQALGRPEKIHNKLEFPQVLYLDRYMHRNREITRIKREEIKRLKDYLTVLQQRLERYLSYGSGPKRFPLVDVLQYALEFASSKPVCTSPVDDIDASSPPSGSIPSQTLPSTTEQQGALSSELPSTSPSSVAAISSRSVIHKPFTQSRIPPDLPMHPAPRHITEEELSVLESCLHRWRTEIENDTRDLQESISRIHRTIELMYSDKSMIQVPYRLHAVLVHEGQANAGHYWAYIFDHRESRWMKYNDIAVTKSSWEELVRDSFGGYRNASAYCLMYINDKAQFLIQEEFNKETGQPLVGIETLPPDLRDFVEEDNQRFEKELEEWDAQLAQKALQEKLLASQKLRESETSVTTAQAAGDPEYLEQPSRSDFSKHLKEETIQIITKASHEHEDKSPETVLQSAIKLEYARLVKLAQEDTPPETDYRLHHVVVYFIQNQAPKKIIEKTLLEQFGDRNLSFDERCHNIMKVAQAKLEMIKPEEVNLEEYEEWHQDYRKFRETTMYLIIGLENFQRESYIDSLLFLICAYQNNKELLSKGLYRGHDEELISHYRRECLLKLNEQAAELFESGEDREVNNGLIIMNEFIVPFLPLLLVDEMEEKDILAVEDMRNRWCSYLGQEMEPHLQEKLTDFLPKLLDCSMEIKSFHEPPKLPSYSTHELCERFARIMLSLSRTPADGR
The experiment in a line: Ubiquitin-Rhodamine 110 Assay for USP25 Activity, Example A-3. In kind it is biochemical. The following applies: Ubiquitin-Rhodamine 110 assay, Example A-3; read-out: USP25 A-3 IC50 range. The method in brief:
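USP25-His6 ([…] final as stated) preincubated 30 min with compound (10-point, 25 μM to 1.3 nM), then Ub-Rh110 at 25 nM (<<Km) added in pH 8.0 Tris buffer with BME, BGG and Triton X-100. Reaction stopped after 45 min at room temperature with 10 mM citric acid; fluorescence read at 485/535 nm.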
For `Cc1ccc2c(N)c(C(=O)N[C@H]3CCc4nc(N5CC[C@@]6(C5)OCC[C@@H]6N)ccc4C3)sc2n1` [Example 407, 3-amino-N-[(6S)-2-[(4S,5S)-4-amino-1-oxa-7-azaspiro[4.4]nonan-7-yl]-5,6,7,8-tetrahydroquinolin-6-yl]-6-methylthieno[2,3-b]pyridine-2-carboxamide], the IC50 – broadly, the concentration that inhibits the measured activity by half – is more than 2000 nM. Turning to `Cc1ccc2c(N)c(C(=O)N[C@H]3CCc4nc(N5CC[C@]6(C5)OCC[C@H]6N)ccc4C3)sc2n1` [Example 408, 3-amino-N-[(6S)-2-[(4R,5R)-4-amino-1-oxa-7-azaspiro[4.4]nonan-7-yl]-5,6,7,8-tetrahydroquinolin-6-yl]-6-methylthieno[2,3-b]pyridine-2-carboxamide], the IC50 is more than 2000 nM.

Consider `COC[C@H]1[C@H](N)CCN1c1ccc2c(n1)CC[C@H](NC(=O)c1sc3nc(C)ccc3c1N)C2` [Example 419, 3-amino-N-[(6S)-2-[(2R,3R)-3-amino-2-(methoxymethyl)pyrrolidin-1-yl]-5,6,7,8-tetrahydroquinolin-6-yl]-6-methylthieno[2,3-b]pyridine-2-carboxamide], for which the IC50 is more than 2000 nM. The result for `COC[C@@H]1[C@@H](N)CCN1c1ccc2c(n1)CC[C@H](NC(=O)c1sc3nc(C)ccc3c1N)C2` [Example 420, 3-amino-N-[(6S)-2-[(2S,3S)-3-amino-2-(methoxymethyl)pyrrolidin-1-yl]-5,6,7,8-tetrahydroquinolin-6-yl]-6-methylthieno[2,3-b]pyridine-2-carboxamide] reads 50 to 200 nM; that for `CCn1ccc2cc(C(=O)N[C@H]3CCc4nc(N5C[C@H](N)[C@@H](C(F)(F)F)C5)ccc4C3)cnc21` [Example 421, N-[(6S)-2-[(3R,4S)-3-amino-4-(trifluoromethyl)pyrrolidin-1-yl]-5,6,7,8-tetrahydroquinolin-6-yl]-1-ethyl-1H-pyrrolo[2,3-b]pyridine-5-carboxamide], 200 to 2000 nM. The value for `CCn1ccc2cc(C(=O)N[C@H]3CCc4nc(N5C[C@@H](N)[C@H](C(F)(F)F)C5)ccc4C3)cnc21` [Example 422, N-[(6S)-2-[(3S,4R)-3-amino-4-(trifluoromethyl)pyrrolidin-1-yl]-5,6,7,8-tetrahydroquinolin-6-yl]-1-ethyl-1H-pyrrolo[2,3-b]pyridine-5-carboxamide] was more than 2000 nM; that for `CO[C@]1(C)CN(c2ccc3c(n2)CC[C@H](NC(=O)c2sc4nc(C)ccc4c2N)C3)C[C@@H]1N` [Example 427, 3-amino-N-[(6S)-2-[(3R,4S)-4-amino-3-methoxy-3-methylpyrrolidin-1-yl]-5,6,7,8-tetrahydroquinolin-6-yl]-6-methylthieno[2,3-b]pyridine-2-carboxamide] was 200 to 2000 nM. The result for `CO[C@@]1(C)CN(c2ccc3c(n2)CC[C@H](NC(=O)c2sc4nc(C)ccc4c2N)C3)C[C@H]1N` [Example 428, 3-amino-N-[(6S)-2-[(3S,4R)-4-amino-3-methoxy-3-methylpyrrolidin-1-yl]-5,6,7,8-tetrahydroquinolin-6-yl]-6-methylthieno[2,3-b]pyridine-2-carboxamide] reads 200 to 2000 nM. Take `Cc1ccc2c(N)c(C(=O)N[C@H]3CCc4nc(N5C6CC(N)CC5CS(=O)(=O)C6)ccc4C3)sc2n1` (stereo partly drawn) [Example 429, 3-amino-N-[(6S)-2-{7-amino-3,3-dioxo-3λ-thia-9-azabicyclo[3.3.1]nonan-9-yl}-5,6,7,8-tetrahydroquinolin-6-yl]-6-methylthieno[2,3-b]pyridine-2-carboxamide]: the IC50 is 50 to 200 nM. As to `Cc1ccc2c(N)c(C(=O)N[C@H]3CCc4nc(N5C[C@H](N)[C@]6(CCOC6)C5)ccc4C3)sc2n1` [Example 430, 3-amino-N-[(6S)-2-[(5S,9R)-9-amino-2-oxa-7-azaspiro[4.4]nonan-7-yl]-5,6,7,8-tetrahydroquinolin-6-yl]-6-methylthieno[2,3-b]pyridine-2-carboxamide], the IC50 is more than 2000 nM. The result for `CO[C@@]12CCN[C@H]1CN(c1ccc3c(n1)CC[C@H](NC(=O)c1sc4nc(C)ccc4c1N)C3)C2` [Example 434, N-[(6S)-2-[(3aR,6aS)-3a-methoxy-octahydropyrrolo[2,3-c]pyrrol-5-yl]-5,6,7,8-tetrahydroquinolin-6-yl]-3-amino-6-methylthieno[2,3-b]pyridine-2-carboxamide] reads more than 2000 nM; that for `CO[C@]12CCN[C@@H]1CN(c1ccc3c(n1)CC[C@H](NC(=O)c1sc4nc(C)ccc4c1N)C3)C2` [Example 435, N-[(6S)-2-[(3aS,6aR)-3a-methoxy-octahydropyrrolo[2,3-c]pyrrol-5-yl]-5,6,7,8-tetrahydroquinolin-6-yl]-3-amino-6-methylthieno[2,3-b]pyridine-2-carboxamide], 200 to 2000 nM.
